Laboratory results from PubChem BioAssay (NCI).
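Test compounds were applied to cells in 96-well plates for 48 hours at 5 doses. Here, GI50 denotes the concentration required for 50% inhibition of growth. Definition used: TGI = concentration required for complete inhibition of growth.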

Tests used:
Assay in all cases: DTP human tumour cell line panel, 48 h
786-0 renal = tested on: 786-0 renal
A498 renal = tested on: A498 renal
A549 NSCLC = tested on: A549 NSCLC
ACHN renal = tested on: ACHN renal
BT-549 breast = tested on: BT-549 breast
CAKI-1 renal = tested on: CAKI-1 renal
CCRF-CEM leukemia = tested on: CCRF-CEM leukemia
COLO 205 colon = tested on: COLO 205 colon
DU-145 prostate = tested on: DU-145 prostate
EKVX NSCLC = tested on: EKVX NSCLC
HCC-2998 colon = tested on: HCC-2998 colon
HCT-116 colon = tested on: HCT-116 colon
HCT-15 colon = tested on: HCT-15 colon
HL-60(TB) leukemia = tested on: HL-60(TB) leukemia
HOP-62 NSCLC = tested on: HOP-62 NSCLC
HOP-92 NSCLC = tested on: HOP-92 NSCLC
HS 578T breast = tested on: HS 578T breast
HT29 colon = tested on: HT29 colon
IGROV1 ovarian = tested on: IGROV1 ovarian
K-562 leukemia = tested on: K-562 leukemia
KM12 colon = tested on: KM12 colon
LOX IMVI melanoma = tested on: LOX IMVI melanoma
M14 melanoma = tested on: M14 melanoma
MALME-3M melanoma = tested on: MALME-3M melanoma
MCF7 breast = tested on: MCF7 breast
MDA-MB-231 breast = tested on: MDA-MB-231 breast
MOLT-4 leukemia = tested on: MOLT-4 leukemia
NCI-H226 lung = tested on: NCI-H226 lung
NCI-H23 lung = tested on: NCI-H23 lung
NCI-H460 lung = tested on: NCI-H460 lung
NCI-H522 lung = tested on: NCI-H522 lung
NCI/ADR-RES ovarian = tested on: NCI/ADR-RES ovarian
OVCAR-3 ovarian = tested on: OVCAR-3 ovarian
OVCAR-4 ovarian = tested on: OVCAR-4 ovarian
OVCAR-5 ovarian = tested on: OVCAR-5 ovarian
OVCAR-8 ovarian = tested on: OVCAR-8 ovarian
PC-3 prostate = tested on: PC-3 prostate
RPMI-8226 leukemia = tested on: RPMI-8226 leukemia
RXF 393 renal = tested on: RXF 393 renal
SF-268 CNS = tested on: SF-268 CNS
SF-295 CNS = tested on: SF-295 CNS
SF-539 CNS = tested on: SF-539 CNS
SK-MEL-2 melanoma = tested on: SK-MEL-2 melanoma
SK-MEL-28 melanoma = tested on: SK-MEL-28 melanoma
SK-MEL-5 melanoma = tested on: SK-MEL-5 melanoma
SK-OV-3 ovarian = tested on: SK-OV-3 ovarian
SN12C renal = tested on: SN12C renal
SNB-19 CNS = tested on: SNB-19 CNS
SNB-75 CNS = tested on: SNB-75 CNS
SW-620 colon = tested on: SW-620 colon
T-47D breast = tested on: T-47D breast
TK-10 renal = tested on: TK-10 renal
U251 CNS = tested on: U251 CNS
UACC-257 melanoma = tested on: UACC-257 melanoma
UACC-62 melanoma = tested on: UACC-62 melanoma
UO-31 renal = tested on: UO-31 renal

## Nc1nc2c(c3ncncc13)C(c1cccc(C(F)(F)F)c1)Cc1ncncc1-2 (configuration not stated)
786-0 renal
  GI50: 4.43 µM
  TGI: 27.4 µM
A498 renal
  GI50: 3.28 µM
  TGI: 8.75 µM
A549 NSCLC
  GI50: 5.45 µM
  TGI: > 100 µM
ACHN renal
  GI50: 7.06 µM
  TGI: 41.6 µM
BT-549 breast
  GI50: 4.08 µM
  TGI: 21.5 µM
CAKI-1 renal
  GI50: 4.29 µM
  TGI: > 100 µM
CCRF-CEM leukemia
  GI50: 4.28 µM
  TGI: 23.3 µM
COLO 205 colon
  GI50: 3.26 µM
  TGI: 13.8 µM
DU-145 prostate
  GI50: 3.78 µM
  TGI: > 100 µM
EKVX NSCLC
  GI50: 6.18 µM
  TGI: > 100 µM
HCC-2998 colon
  GI50: 11.2 µM
  TGI: 48.7 µM
HCT-116 colon
  GI50: 4.85 µM
  TGI: 37 µM
HCT-15 colon
  GI50: 3.57 µM
  TGI: > 100 µM
HL-60(TB) leukemia
  GI50: 3.44 µM
  TGI: 14.1 µM
HOP-62 NSCLC
  GI50: 7.41 µM
  TGI: 47.2 µM
HOP-92 NSCLC
  GI50: 6.92 µM
  TGI: 57.9 µM
HS 578T breast
  GI50: 4.71 µM
  TGI: 45.9 µM
HT29 colon
  GI50: 4.2 µM
  TGI: 15.9 µM
IGROV1 ovarian
  GI50: 8.06 µM
  TGI: 74.9 µM
K-562 leukemia
  GI50: 3.74 µM
  TGI: 22.8 µM
KM12 colon
  GI50: 4.43 µM
  TGI: 35.5 µM
LOX IMVI melanoma
  GI50: 5.36 µM
  TGI: 21.1 µM
M14 melanoma
  GI50: 2.97 µM
  TGI: 10 µM
MALME-3M melanoma
  GI50: 10.2 µM
  TGI: 44.7 µM
MCF7 breast
  GI50: 2.96 µM
  TGI: > 100 µM
MDA-MB-231 breast
  GI50: 11.1 µM
  TGI: 31.3 µM
MOLT-4 leukemia
  GI50: 4.78 µM
  TGI: 34.9 µM
NCI-H226 lung
  GI50: 9.61 µM
  TGI: 50.1 µM
NCI-H23 lung
  GI50: 5.17 µM
  TGI: > 100 µM
NCI-H460 lung
  GI50: 3.96 µM
  TGI: > 100 µM
NCI-H522 lung
  GI50: 4.66 µM
  TGI: 26.1 µM
NCI/ADR-RES ovarian
  GI50: 3.48 µM
  TGI: > 100 µM
OVCAR-3 ovarian
  GI50: 3.03 µM
  TGI: 11.4 µM
OVCAR-4 ovarian
  GI50: 10.8 µM
  TGI: > 100 µM
OVCAR-5 ovarian
  GI50: 11.3 µM
  TGI: 31.4 µM
OVCAR-8 ovarian
  GI50: 8.08 µM
  TGI: > 100 µM
PC-3 prostate
  GI50: 4.71 µM
  TGI: > 100 µM
RPMI-8226 leukemia
  GI50: 5.33 µM
  TGI: 43.8 µM
RXF 393 renal
  GI50: 2.96 µM
  TGI: 8.81 µM
SF-268 CNS
  GI50: 5.94 µM
  TGI: 37.7 µM
SF-295 CNS
  GI50: 2.99 µM
  TGI: 10.7 µM
SF-539 CNS
  GI50: 1.98 µM
  TGI: 5.97 µM
SK-MEL-2 melanoma
  GI50: 5.36 µM
  TGI: 29.7 µM
SK-MEL-28 melanoma
  GI50: 11.4 µM
  TGI: 26.9 µM
SK-MEL-5 melanoma
  GI50: 4.88 µM
  TGI: 17.7 µM
SK-OV-3 ovarian
  GI50: 5.07 µM
  TGI: > 100 µM
SN12C renal
  GI50: 7.66 µM
  TGI: 49.2 µM
SNB-19 CNS
  GI50: 4.88 µM
  TGI: 33.2 µM
SNB-75 CNS
  GI50: 3.11 µM
  TGI: 43.7 µM
SW-620 colon
  GI50: 4.51 µM
  TGI: > 100 µM
T-47D breast
  GI50: 4.15 µM
  TGI: 82.9 µM
TK-10 renal
  GI50: 9.05 µM
  TGI: 79.4 µM
U251 CNS
  GI50: 3.69 µM
  TGI: 13.6 µM
UACC-257 melanoma
  GI50: 9.56 µM
  TGI: 62.1 µM
UACC-62 melanoma
  GI50: 3.86 µM
  TGI: 17.6 µM
UO-31 renal
  GI50: 7.22 µM
  TGI: 85 µM
